Measured values reported in patent publication US12115233B2, “Imaging and radiotherapeutics agents targeting fibroblast-activation protein-α (FAP-α)” (The Johns Hopkins University, priority 2017, dated 2024).

Assays:
[1] = tested on: FAP-positive cell lines (NCIH2228, U87, and SKMEL24); assay: Cellular uptake of XY-FAP-01 in FAP-positive cell lines (fluorescence imaging); type: cell-based, human
From the text: (§1) 1.5 Cell lines. Six human cancer cell lines were used to assess binding to FAP: glioblastoma (U-87-MG), melanoma (SK-MEL-24), prostate (PC-3), non-small cell lung cancer (NCI-H2228), colorectal carcinoma (HCT 116), and lung squamous cell carcinoma (NCI-H226). From the literature, U-87-MG, SK-MEL-24, and NCI-H2228 cell lines were identified as having high levels of FAP expression [FAP-positive (+)] whereas PC-3, NCI-H226, and HCT 116 cells expressed very low levels of FAP [FAP-negative(−)]. These expression profiles were further confirmed via flow cytometry with an APC-conjugated anti-FAP antibody (R&D Systems, Minneapolis, MN) and quantitative real-time PCR. All cell lines were purchased from American Type Culture Collection (ATCC, Manassas, VA).
(§2) 1.6 Cellular Uptake Studies. All cellular uptake and specific binding studies were performed in triplicate to ensure reproducibility. Cells were detached using 0.05% trypsin (Corning), resuspended in 1 million cell aliquots in binding buffer, and incubated with various concentrations (range, 50 nM to 0.78 nM) of XY-FAP-01 for 1 hour at 37° C. and 5% CO2. […] Cellular uptake was terminated by washing cells with ice cold PBS (1×) three times. Cells were resuspended in binding buffer and transferred to a 96-well plate for imaging. Images were acquired on the LI-COR Pearl Impulse Imager (Lincoln, NE) using an excitation wavelength of 785 nm and detection of the emission wavelength at 800 nm. Images were analyzed using the LI-COR Pearl Impulse Software (Version 2.0) and fluorescence intensity was corrected for background signal and normalized to well area.

[2] = tested on: FAP-PC-3 tumor xenograft; assay: Small-animal NIRF imaging, FAP negative xenograft; type: in vivo, NOD/SKID mice; conditions: all imaging time points (30 min to 4 h)
Protocol: (§3) 1.7 Small-Animal Near Infrared Fluorescence (NIRF) Imaging. NIRF images were acquired on the LI-COR Pearl Impulse Imager using an excitation wavelength of 785 nm and a detection wavelength of 800 nm. Mice utilized for imaging studies were anesthetized with 3% isofluorane (v/v) and maintained at 1.5% isofluorane for the imaging procedure. NOD/SKID mice bearing FAP+ U-87-MG and FAP-PC-3 tumor xenografts were injected with 10 nmol of XY-FAP-01 via tail vein injection and images were acquired at 30 min, 1 h, 2 h, 2.5 h, and 4 h after injection of tracer.
(§4) 1.11 Xenograft Tumor Model. 6-week old female NOD/SCID mice were subcutaneously injected in the upper left and right flanks with 1 million U87(FAP+) cells and PC3 cells (FAP-) in RPMI 1640 media supplemented with 1% FBS. Mice were monitored for tumor size and used for optical or SPECT/CT imaging when the size of tumor reached around 100 mm3.

[3] = Small-animal NIRF imaging, tracer clearance; type: in vivo, NOD/SKID mice; conditions: after one hour of distribution
Protocol: as §3, §4

[4] = target: T1, human recombinant FAP (Homo sapiens, UniProt Q12884); assay: FAP Inhibition Assay (fluorogenic FAP Assay Kit); type: biochemical; conditions: DPP substrate, 10 minutes at room temperature, Ki from IC50 by Cheng-Prusoff conversion, read-out: enzyme inhibitory constant (Ki)
T1 construct: purchased BPS Bioscience, San Diego, CA
T1 sequence (Q12884 26-760 limits assumed): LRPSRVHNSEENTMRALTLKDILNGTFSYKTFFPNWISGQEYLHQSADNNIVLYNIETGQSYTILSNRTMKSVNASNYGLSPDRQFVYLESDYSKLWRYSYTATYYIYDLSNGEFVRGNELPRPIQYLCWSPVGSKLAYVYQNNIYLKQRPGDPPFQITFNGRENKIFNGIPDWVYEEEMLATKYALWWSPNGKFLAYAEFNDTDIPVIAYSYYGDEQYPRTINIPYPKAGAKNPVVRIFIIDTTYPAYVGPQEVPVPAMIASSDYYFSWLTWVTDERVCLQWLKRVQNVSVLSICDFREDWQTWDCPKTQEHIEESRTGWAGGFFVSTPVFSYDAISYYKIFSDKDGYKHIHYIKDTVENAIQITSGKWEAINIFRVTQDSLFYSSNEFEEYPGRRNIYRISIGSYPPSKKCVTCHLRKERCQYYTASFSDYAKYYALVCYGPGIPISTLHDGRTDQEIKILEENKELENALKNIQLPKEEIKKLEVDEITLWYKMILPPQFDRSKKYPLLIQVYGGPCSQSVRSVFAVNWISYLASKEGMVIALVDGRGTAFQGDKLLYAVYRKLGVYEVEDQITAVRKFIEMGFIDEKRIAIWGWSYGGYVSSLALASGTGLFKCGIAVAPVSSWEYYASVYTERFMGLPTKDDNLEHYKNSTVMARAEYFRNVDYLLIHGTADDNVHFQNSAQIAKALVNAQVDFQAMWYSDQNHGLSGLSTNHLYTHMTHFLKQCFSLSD
Protocol: 1.4 FAP Inhibition Assay. The inhibitory activity of XY-FAP-01 was determined using a fluorogenic FAP Assay Kit (BPS Bioscience, San Diego, CA). Briefly, XY-FAP-01, DPP substrate, and human recombinant FAP were loaded into a 96 well plate to initiate the enzyme reaction. The reaction was left for 10 minutes at room temperature before fluorescence was measured with a VICTOR3 V multilabel plate reader (PerkinElmer Inc., Waltham, MA). Data was normalized and semi-log inhibition curves were generated in order to determine the IC50 value (concentration of XY-FAP-01 where the enzyme activity is 50% inhibited) for XY-FAP-01 and subsequent enzyme inhibition constant (Ki) using the Cheng-Prusoff conversion. Generation of semi-log inhibition curves and IC50 values were done using GraphPad Prism (San Diego, CA).

[5] = tested on: FAP+ U-87-MG tumor xenograft; assay: Small-animal NIRF imaging, FAP positive xenograft; type: in vivo, NOD/SKID mice
Protocol: as §3, §4

[6] = tested on: FAP-negative cell lines (PC3, NCIH226, and HCT116); assay: Cellular uptake of XY-FAP-01 in FAP-negative cell lines (fluorescence imaging); type: cell-based, human; conditions: all concentrations (50 nM to 0.78 nM)
From the text: as §1
as §2, with “Cells were resuspended in binding buffer and transferred to a 96-well plate for imaging. Images were acquired on the LI-COR Pearl Impulse Imager (Lincoln, NE) using an excitation wavelength of 785 nm and detection of the emission wavelength at 800 nm.” left out

Ki [4]: 1.26 nM
Structure (SMILES): CC1(C)C(=CC=C2CCCC(C=CC3=[N+](CCCCCC(=O)NCCCOc4ccc5nccc(C(=O)NCC(=O)N6CCC[C@H]6C#N)c5c4)c4ccc(S(=O)(=O)[O-])cc4C3(C)C)=C2Oc2ccc(S(=O)(=O)O)cc2)N(CCCCS(=O)(=O)O)c2ccc(S(=O)(=O)O)cc21 [XY-FAP-01]
uptake of XY-FAP-01 in FAP-positive cell lines ([1]; 50 nM to 0.78 nM, 1 hour at 37° C.): concentration dependent uptake
XY-FAP-01 binding when preblocked with a DPP-IV specific inhibitor ([1]; FAP-positive cell lines, 25 nM tracer, preblock with Sitagliptin): did not result in a change of binding ability
concentration at which saturated binding was observed ([1]; FAP-positive cell lines, 1 hour at 37° C.): 25 nM
XY-FAP-01 binding when preblocked with a FAP and DPP-IV specific inhibitor ([1]; FAP-positive cells, 25 nM tracer, preblock with Val-boroPro (Talabostat)): significantly inhibited
uptake in vitro on FAP-α+ U87 cell line ([1]; summary statement): selective uptake
tracer uptake in the FAP negative tumor (NIRF) [2]: no significant uptake
tracer clearance (NIRF) [3]: tracer clearance via the bladder was observed
tracer uptake in U-87-MG xenograft (NIRF) ([5]; 10 nmol via tail vein, as early as 30 minutes post injection): specific uptake
tracer uptake in the positive xenograft (NIRF) ([5]; after four hours of distribution): retained
uptake in vivo on FAP-α+ U87 tumor ([5]; summary statement): selective uptake
binding of XY-FAP-01 in FAP-negative cell lines [6]: no significant binding
